Data on one substance can be found in EP2982682A1, “CHIMERIC PEPTIDE AND PHARMACEUTICAL COMPOSITION FOR TREATING ONCOLOGICAL DISEASES” (Obshestvo S Ogranichennoj Otvetstvennost`yu "Metamax", priority 2013, dated 2014).

In data set [1] the test system is HCT-116. Briefly: Cytostatic effect: cell cycle phases on DNA-histograms after synchronization in G0/G1. Format: cell-based, human. Here is the method: (§1) Using cell lines MCF-7, HCT-116, A549 (lung adenocarcinoma) and SKOV (ovarian cancer) we studied the effect of the peptide sequences on the cells proliferative activity. The experiments involved synchronization of the cells in G0/G1-phase of the cells cycle using depleted culture medium. The cells in 24-well plate were held for 48 hours in the medium containing 0.5% PBS, then the synchronization block was removed via replacement of the medium with one containing 5% PBS and the study peptides in different concentrations. It was incubated for 24 hours, and then the cells were removed from the matrix using trypsin, washed in PSB, fixed in ethanol. Staining of samples, washing from ethanol in PBS using centrifugation, incubation with RNA-ase, staining with propidium iodide. Analysis was performed using flow cytometry, we evaluated the distribution of cells in the cell cycle phases on DNA-histograms using ModFit 3.0 software. For cells cultures MCF-7 and HCT-116 we studied the effect of 5 peptide sequences in concentrations of 10 and 40 µM. It was shown that the study sequences are able to decrease the proliferating activity of the dividing cells (Figure 9).

Data set [2] has as its system MCF-7 (breast cancer). Kind of data set: Combined effect with Taxol or 5-fluorouracil, Annexin and propidium iodide flow cytometry. The format is cell-based. The settings on record: 10, 20, 30 µM, 24 hours. Here is the method:
In cell culture MCF-7 (breast cancer) there was investigated the combined effect of DA, 5-fluorouracil and Taxol, and the sequences D37K and F26K-2 (in the cytotoxicity studies the sequence had the most pronounced effect on the MCF-7 culture). The cells were grown in 24-well plates to 70% of the monolayer, followed by replacement of the medium with the medium containing the target sequence and drugs in concentrations of 10, 20 and 30 µM. The incubation time was 24 hours. Analyzed cells, which entered into apoptosis, were detected using Annexin and propidium iodide staining, flow cytometry.
On the technique in general: Flow cytometry measures light scatter and fluorescence of single cells or particles in a stream.

Data set [3] relates to MCF-7. Kind of data set: Cytostatic effect: cell cycle phases on DNA-histograms after synchronization in G0/G1. The format is cell-based. The settings on record: 10 and 40 µM. The procedure: as §1
In data set [4] the test system is pRb in MCF-7. Kind of data set: Level of underphosphorylated pRb by flow cytometry. Format: cell-based. Particulars: 10 and 40 µM. The text has this:
(§2) Although the literature describes the retention of such peptides properties to inhibit a phosphorylating function for cyclin-dependent kinases, this was confirmed in cell extracts. We monitored changes in the level of pRB phosphorylation - molecular target of type D cyclin kinase against the background of the investigated peptides, including the sequences, having homology with p16INK4a, at the cellular level with the help of flow cytometry method.
(§3) Flow cytometry allows to render the cells, where the pRb product is in the "underphosphorylated" state. The fluorescently labeled antibodies interact with "underphosphorylated" pRb.
(§4) To determine the amount of "underphosphorylated" pRb, a series of experiments was performed, where the study peptide sequences were added to the cell cultures, synchronized with the help of depleted cell culture medium method (MCF-7, HCT-116), after removing the synchronization block, then the cells were sampled every two hours. A part of the cells from each plate was fixed to further define the phases of the cell cycle, and to determine the amount of the "underphosphorylated" pRb. Also a negative control was set in the form of synchronized cells samples, but without added peptide. It was shown that introduction of the peptide sequences into the cell culture inhibits the pRb phosphorylation and reduces its maximum level in the culture (Figure 19).

In data set [5] the test system is Bcl-2 in HCT-116 cells. Kind of data set: Level of Bcl-2 in cells, antibody staining and flow cytometry. The format is cell-based, human. Particulars: 24 hours. Here is the method: Example 4. Investigation of the peptide sequences effect on change in the level of Bcl-2 Monoclonal antibodies Anti Human Bcl-2 (Caltag Laboratories, USA) were used to estimated change in the level of Bcl-2 in HCT-116 cells when incubated with the study peptide sequence. The cells were transferred to a 24-well plate at 1 x 10^4 per well, grown for 48 hours under normal conditions (medium DMEM, 10%), then synchronized using the depleted medium containing 0.5% PBS for 48 hours. Upon removing the synchronizing block the medium containing 10% PBS was added to the cells, and the peptide sequences were studied at concentrations of 10 and 40 µM. Incubation with the peptides was performed for 24 hours, then the culture was removed with the help of trypsin, fixed for one hour with PBS containing 1% formaldehyde, and then fixed with ethanol. The staining and the analysis were performed according to the antibodies manufacturer's instructions. […] It is thereby shown that the apoptosis induced by introduction of the peptide sequences into the culture medium is explained by influence of the peptides on specific molecular processes of the cell.

Data set [6] concerns MCF-7 (breast cancer). Briefly: Cytotoxic activity on proliferating cell lines, Annexin V/PI flow cytometry. The format is cell-based. The settings on record: 5-40 µM, 24 hours. The procedure: (§5) We studied the effect of peptide sequences D37K, F26K-1, F26K-2, W26K-1, W26K-2 on the cells of transplanted cell cultures MCF-7 (breast cancer), A549 (lung adenocarcinoma), SKOV (ovarian cancer) and HCT116 (colon adenocarcinoma).
(§6) When preparing for the experiment the cells cultures were placed in 24-well plates in amount of 1 * 10^4 cells per well, incubated for 48 hours at 37°C and 5% CO2, medium DMEM (PanEco, Russia), containing glutamine, gentamicin, 10% PBS. After such incubation the cell cultures formed loose mono-layer. Experimental set-up: culture medium was replaced with the medium containing the study peptides in the concentrations of 5 µM, 10 µM, 20 µM, 40 µM; in the control samples the medium contained DMSO 20 µL to determine the effect of solvent (peptides were dissolved in DMSO). Incubation time was 24 hours. Then the cells were carefully removed from the matrix using trypsin (cells in the wells with peptides were attached stronger than the control sample), the medium was removed via centrifugation at 3,000 rounds for 7 minutes, supernatant fluid was removed and the staining was performed using double mark Annexin V/PI. Analysis was performed using flow cytometer and evaluated the number of cells including Annexin V - apoptosis, the number of cells including propidium iodide - dead cells, the number of intact cells - live cells.

For data set [7], the system named is pRb in SKOV cell line. Kind of data set: Level of underphosphorylated pRb by flow cytometry. The format is cell-based. The settings on record: 10 and 40 µM. Here is the method: as §3
In the study of the "underphosphorylated" pRb level using SKOV cell line, the delay effect in formation of "underphosphorylated" pRb was lower than for cultures MCF-7 and HCT-116, although this cell line was previously shown to have the proliferation delay effect during incubation of the cells with the study peptide sequences. […] Obvious "underphosphorylated" pRb formation delay effect compared to the control sample, however, in the case of SKOV cell line, was somewhat lower than that of cultures of MCF-7 and HCT-116.

For data set [8], the system named is SKOV (ovarian cancer). Briefly: Cytostatic effect: cell cycle phases and hypodiploid peak on DNA-histograms after synchronization. The format is cell-based. Particulars: 5-40 µM, 24 hours. The procedure:
as §1
When studying the effect of the peptide sequences on SKOV cells culture the incubation was performed with the sequences F26K-1, F26K-2, W26K-1, and W26K-2. […]

The test system of data set [9] is HCT116 (colon adenocarcinoma). Briefly: Cytotoxic activity on proliferating cell lines, Annexin V/PI flow cytometry. The settings on record: 5-40 µM, 24 hours. The format is cell-based, human. Here is the method:
as §5, §6

Data set [10] deals with pRb in HCT-116. Briefly: Level of underphosphorylated pRb by flow cytometry. Format: cell-based, human.
Description: as §2, §3, §4
As it is seen in Figure 19, the level of "underphosphorylated" pRb begins to grow after removal of the synchronization block in the control samples without addition of the peptide, and to a certain point (4 or 6 hours of incubation), depending on the cell line, it reaches a maximum and then begins to decline. In the samples with peptides the level of "underphosphorylated" pRb begins to increase later and reaches its maximum after 12-18 hours of incubation, the delay in reaching the maximum level of pRb depends on concentration of the peptide sequences. […] We analyzed the level of "underphosphorylated" pRb every two hours; the maximum incubation time was 24 hours.

Square brackets hold non-standard residues; d marks the D form. Ends that are not written are not given here. Ahx = NCCCCCC(=O)O

H-FLDAILLI[Ahx] [F26K-2]: the antiproliferative effect result in [1] (10 and 40 µM) is “most clear antiproliferative effect”; in data set [3], “most clear antiproliferative effect”. Further, in [1] (synchronized culture, 40 µM (Fig. 10)), the “delay in cells leaving the rest phase” value lay within 8 to 12 h. The “combined use with 5-fluorouracil, cytotoxic effect” value in data set [2] was “linear amplification”. For the same substance, the “combined use with Taxol, level of apoptosis” value in data set [2] is “summation of cytotoxic effects”. In [4], the “delay in the formation of "underphosphorylated" pRb” value is “greatest delay”. In addition, the “inhibition of the expression of Bcl-2 protein” value in [5] (10 and 40 µM) is reported as “strongest inhibition”. In addition, the “decrease of the level of Bcl-2-positive cells” value in data set [5] (40 µM) is “over 15%”. Besides, the “apoptosis level (Annexin V)” value in data set [6] and in [9] was “more pronounced pro-apoptosis effect” in each case. Further, the “delay in formation of "underphosphorylated" pRb as compared to the control” value in [7] is 4-10 hours. The “antiproliferative effect (cells in G0/G1 and S+G2/M)” value in [8] is given as “caused the delay of proliferation”. The “delay in formation of "underphosphorylated" pRb” value in [10] (10 and 40 µM) is given as “greatest effect of the delay”. Further, the “incubation time of maximum level of "underphosphorylated" pRb” value in data set [10] (peptide 10 µM) is 16 hours; in data set [10] (peptide 40 µM), 20 hours.
